In ChEMBL document CHEMBL4196088, “Induction of cell killing and autophagy by amphiphilic pyrrolidine derivatives on human pancreatic cancer cells” (Eur J Med Chem, 2018):
The source made the active and inactive calls. The rule behind the calls is not given here.

Legend:
SK-BR-3 = assay: Growth inhibition of human SKBR3 cells after 72 hrs; type: functional, cell-based; conditions: SK-BR-3, 72 h
NCI-H460 = assay: Growth inhibition of human NCI-H460 cells after 72 hrs; type: functional, cell-based; conditions: NCI-H460, 72 h
ACHN = assay: Growth inhibition of human ACHN cells after 72 hrs; type: functional, cell-based
HeLa = assay: Growth inhibition of human HeLa cells after 72 hrs; type: functional, cell-based
Jurkat = assay: Growth inhibition of human Jurkat cells after 72 hrs; type: functional, cell-based
BXPC-3 [1] = assay: Induction of apoptosis in human BxPC3 cells assessed as accumulation at sub-G0/G1 phase at 20 uM after 24 hrs by propidium iodide staining based flow cytometry (reference value: 2.3%); type: functional
BXPC-3 [2] = assay: Induction of apoptosis in human BxPC3 cells assessed as accumulation at sub-G0/G1 phase at 20 uM after 48 hrs by propidium iodide staining based flow cytometry (reference value: 2.8%); type: functional
BXPC-3 [3] = assay: Induction of apoptosis in human BxPC3 cells assessed as accumulation at sub-G0/G1 phase harboring pSFFV-Bcl-XL at 20 uM after 24 hrs by propidium iodide staining based flow cytometry (reference value: 1.2%); type: functional
BXPC-3 [4] = assay: Induction of apoptosis in human BxPC3 cells assessed as accumulation at sub-G0/G1 phase harboring pSFFV-Bcl-XL at 20 uM after 48 hrs by propidium iodide staining based flow cytometry (reference value: 1.3%); type: functional
PK9 [5] = assay: Induction of apoptosis in human PK9 cells assessed as accumulation at sub-G0/G1 phase at 20 uM after 24 hrs by propidium iodide staining based flow cytometry (reference value: 2.2%); type: functional
Fibroblast [6] = assay: Induction of apoptosis in human primary fibroblasts at 20 uM after 24 hrs by propidium iodide staining based flow cytometry (reference value: 4.8%); type: cell-based
Fibroblast [7] = assay: Induction of apoptosis in human primary fibroblasts at 20 uM after 48 hrs by propidium iodide staining based flow cytometry (reference value: 6.1%); type: cell-based
[8] = Induction of apoptosis in HPNE cells assessed as accumulation at sub-G0/G1 phase at 20 uM after 48 hrs by propidium iodide staining based flow cytometry (reference value: 0.7%); type: cell-based; conditions: human
BXPC-3 [9] = assay: Induction of apoptosis in human BxPC3 cells assessed as accumulation at sub-G0/G1 phase at 20 uM by propidium iodide staining based flow cytometry; type: functional, cell-based; conditions: TDE = time-dependent effect
PANC-1 [10] = assay: Induction of apoptosis in human PANC1 cells assessed as accumulation at sub-G0/G1 phase at 10 uM after 24 hrs by propidium iodide staining based flow cytometry (reference value: 0.6 to 0.7%); type: functional
PANC-1 [11] = assay: Induction of apoptosis in human PANC1 cells assessed as accumulation at sub-G0/G1 phase at 10 uM after 48 hrs by propidium iodide staining based flow cytometry (reference value: 0.2 to 2.9%); type: functional
BXPC-3 [12] = assay: Induction of apoptosis in human BxPC3 cells harboring pSFFV-Bcl-XL assessed as accumulation at sub-G0/G1 phase at 20 uM by propidium iodide staining based flow cytometry; type: functional, cell-based; conditions: TDE = time-dependent effect
PANC-1 [13] = assay: Induction of apoptosis in human PANC1 cells assessed as accumulation at sub-G0/G1 phase at 20 uM by propidium iodide staining based flow cytometry; type: functional, cell-based; conditions: TDE = time-dependent effect
BXPC-3 [14] = assay: Induction of apoptosis in human BxPC3 cells assessed as accumulation at sub-G0/G1 phase at 10 uM after 72 hrs by propidium iodide staining based flow cytometry (reference value: 3.4%); type: functional
BXPC-3 [15] = assay: Induction of apoptosis in human BxPC3 cells harboring pSFFV-Bcl-XL assessed as accumulation at sub-G0/G1 phase at 10 uM after 24 hrs by propidium iodide staining based flow cytometry (reference value: 1.5%); type: functional
Fibroblast [16] = assay: Induction of apoptosis in human primary fibroblasts assessed as accumulation at sub-G0/G1 phase at 10 uM after 72 hrs by propidium iodide staining based flow cytometry (reference value: 6.7%); type: cell-based
[17] = Induction of apoptosis in HPNE cells assessed as accumulation at sub-G0/G1 phase at 10 uM after 24 hrs by propidium iodide staining based flow cytometry (reference value: 0.6%); type: cell-based; conditions: human
MIA PaCa-2 [18] = assay: Induction of apoptosis in human MIAPaCa2 cells assessed as late apoptotic cells at 20 uM after 24 hrs by Annexin V-FITC/propidium iodide staining based flow cytometry (reference value: 7.4%); type: functional
MIA PaCa-2 [19] = assay: Induction of apoptosis in human MIAPaCa2 cells assessed as late apoptotic cells at 20 uM after 48 hrs by Annexin V-FITC/propidium iodide staining based flow cytometry (reference value: 7.4%); type: functional
BXPC-3 [20] = assay: Induction of apoptosis in human BxPC3 cells assessed as accumulation at sub-G0/G1 phase at 20 uM after 24 to 48 hrs in presence of caspase inhibitor zVAD-fmk by propidium iodide staining based flow cytometry; type: functional, cell-based
BXPC-3 [21] = assay: Induction of autophagy in human BxPC3 cells assessed as increase in LC3-2 protein expression at 20 uM after 15 to 48 hrs by Western blot analysis; type: functional, cell-based
BXPC-3 [22] = assay: Induction of autophagy in human BxPC3 cells assessed as increase in LC3-2 protein expression at 20 uM after 48 hrs in presence of autophagy inhibitor bafilomycin A1 by Western blot analysis; type: functional, cell-based
BXPC-3 [23] = assay: Induction of autophagy in human BxPC3 cells assessed as increase in LC3-2 protein expression at 20 uM after 48 hrs in presence of autophagy inhibitor 3-MA by Western blot analysis; type: functional, cell-based
BXPC-3 [24] = assay: Induction of apoptosis in human BxPC3 cells assessed as accumulation at sub-G0/G1 phase at 20 uM after 48 hrs in presence of autophagy inhibitor 3-MA by propidium iodide staining based flow cytometry; type: functional, cell-based
PK9 [25] = assay: Induction of apoptosis in human PK9 cells harboring BECN1 shRNA at 20 uM after 24 hrs by Annexin V/7-AAD staining based flow cytometry; type: functional, cell-based
PK9 [26] = assay: Induction of apoptosis in human PK9 cells harboring ATG7 shRNA at 20 uM after 24 hrs by Annexin V/7-AAD staining based flow cytometry; type: functional, cell-based
BXPC-3 [27] = assay: Growth inhibition of human BxPC3 cells after 72 hrs by XTT assay; type: functional, cell-based; conditions: BXPC-3, 72 h
PANC-1 [28] = assay: Growth inhibition of human PANC1 cells after 72 hrs by XTT assay; type: functional, cell-based; conditions: PANC-1, 72 h

Row | SMILES | Activity (BXPC-3 [1]) [%] | Activity (BXPC-3 [2]) [%] | Activity (BXPC-3 [3]) [%] | Activity (BXPC-3 [4]) [%] | Activity (PK9 [5]) [%] | Activity (Fibroblast [6]) [%] | Activity (Fibroblast [7]) [%] | Activity [8] [%] | Activity (PANC-1 [10]) [%] | Activity (PANC-1 [11]) [%] | Activity (BXPC-3 [14]) [%] | Activity (BXPC-3 [15]) [%] | Activity (Fibroblast [16]) [%] | Activity [17] [%] | Activity (MIA PaCa-2 [18]) [%] | Activity (MIA PaCa-2 [19]) [%] | Activity (BXPC-3 [20]) | Activity (BXPC-3 [21]) | Activity (BXPC-3 [24]) | further results
1 | CCCCCC/C=C\CCCCCCCCOC[C@H]1NC[C@H](O)[C@@H]1O | 15.8 | 33.7 | 2.8 | 6.7 | 10.1 | 9.2 | 13.9 | 75.7 | 6.7 | 7.1 | 20.8 | 2 | 9.5 | 23.9 | 10.68 | 44.69 | inactive | Active | Active | IC50 (SK-BR-3): 6 µM; IC50 (NCI-H460): 9 µM; IC50 (ACHN): 3 µM; IC50 (HeLa): 2 µM; IC50 (Jurkat): 1 µM; Activity (BXPC-3 [9]): Tde; Activity (BXPC-3 [12]): Tde; Activity (PANC-1 [13]): Tde; Activity (BXPC-3 [22]): Active; Activity (BXPC-3 [23]): inactive; Activity (PK9 [25]): Active; Activity (PK9 [26]): Active
2 | CCCCCCCCCCCCCCCCCCOCC(COP(=O)([O-])OCC[N+](C)(C)C)OC (configuration not stated) [EDELFOSINE] | 16.8 | 28.9 | 3 | 5 | 4.8 | 7.3 | 8.6 | 7.3 | 3.2 | 11.5 | 24.3 | 1.8 | 8.7 | 1.9 | 52.52 | 45.92 | inactive | Active | Active | IC50 (BXPC-3 [27]): 18.8 µM; IC50 (PANC-1 [28]): 25.7 µM
